Legend:
in vitro [1] = details: human, Caco-2
MCF7 tumor = assay: Anticancer efficacy of compound 121 in nude mice bearing MCF7 tumor; assay type: in vivo; details: 1 mg/mouse (~33.3 mg/kg) subcutaneously; MCF-7 xenograft mice
Protocol: For this purpose, MCF7 cancer cells were procured from ATCC and grown in DMEM Medium supplemented with 10% FBS and 1% penicillin streptomycin. Cells were harvested when they reach 70-80% confluence for tumor implantation. 24 h prior to MCF7 cells implantation, the skin area around the injection site of nude mice were disinfected by mildly swabbing with surgical spirit. […] pellet (0.18 mg/pellet 60-day release, Innovative Research of America) was subcutaneously implanted into in the left flank region of the animals. For cell inoculation, cells were mixed with equal volume of Matrigel in a 1:1 ratio followed by injection of 5×10^6 MCF7 cells subcutaneously on the right flank region using a 1 mL syringe attached to a 24 G needle. On the subsequent days the injection site was monitored for tumor palpability. Tumor grafts were measured within 7-8 days of cell inoculation for tumor palpability. […]
After randomization, treatment was initiated when the average tumor volume reaches −200±50 mm^3. Tumor volume and mouse body weight were measured on the first day of treatment (Day 1) and then three times per week till 28 days as shown in FIG. 4. […]
Tumor volume (mm^3) was calculated using the formula, tumor length×(tumor width)2/2. Tumor growth inhibition will be calculated after normalizing the values to that on day 1. % TGI was calculated based on the formula below.

[2] = Pharmacokinetic study in monkey, single oral dose; assay type: in vivo; details: 50 mg/kg single oral; Cynomolgus monkey; plasma
Protocol: The objective of the study was to evaluate pharmacokinetic exposure of compound 121 after per oral dosing at 25 mg/kg dose and Fulvestrant after per oral dosing at 50 mg/kg dose in Cynomolgus monkey. The study was performed in overnight fasted Cynomolgus monkeys.
Blood samples were collected at each time points like 0 h (pre-dose) and 0.25, 0.5, 1, 2, 4, 8, 12, 24, 36 and 48 h post-dose via the cephalic or saphenous veins into polyethylene microcentrifuge tubes containing potassium (K2) EDTA. There were total 11 time points, n=1 monkey. All blood samples were mixed well by inversion and placed on wet ice until processed for plasma. Blood samples were centrifuged at 2˜8° C. for 10 min at 3000 g to collect plasma. Plasma samples of approximately […] at each time point were used for the bioanalysis. The plasma samples were stored frozen in a freezer set to maintain −60° C. to −70° C. until LC/MS/MS analysis.
Bioanalysis was performed using fit-for-purpose LC-MS/MS method for the quantification of compound 121 or Fulvestrant in plasma samples. The calibration curve was prepared in stabilized blank monkey plasma over 1-1000 ng/mL range for compound 121 and 1-3000 ng/mL range for Fulvestrant. Samples were cleaned up using the protein precipitation technique and analysed by LC-MS/MS.
The plasma pharmacokinetic parameters were calculated using standard non-compartmental analysis (using linear trapezoidal method with linear interpolation.)

in vitro [3] = details: human, microsomes, pH 7.4
Protocol: The assay was performed in duplicate.
Supernatant (200 μL) from each reaction tube was taken for LC-MS/MS analysis.

CACO-2 cell line = details: standard compounds at 5 μM; apical to basolateral

Question: For `C[C@H]1O[C@@H](O[C@H]2[C@@H](O)C[C@H](O[C@H]3[C@@H](O)C[C@H](O[C@H]4CC[C@@]5(C)[C@H](CC[C@@H]6[C@@H]5C[C@@H](O)[C@]5(C)[C@@H](C7=CC(=O)OC7)CC[C@]65O)C4)O[C@@H]3C)O[C@@H]2C)C[C@H](O)[C@@H]1O` [Digoxin], which efflux ratio at 5 μM (in vitro [1]) is on record?
Answer: 19.7

Question: Which “% Tumor Growth Inhibition (% TGI) on day 28” value (MCF7 tumor) does the source give for `C[C@]12CC[C@@H]3c4ccc(O)cc4C[C@@H](CCCCCCCCC[S+]([O-])CCCC(F)(F)C(F)(F)F)[C@H]3[C@@H]1CC[C@@H]2O` (stereo partly drawn) [Fulvestrant] here?
Answer: 101%

Question: And the “AUC % Extrap” value [2]?
Answer: Inestimable

Question: What about the AUC_0-t [2] of the same molecule?
Answer: Inestimable

Question: What about the “AUC_0-∞” value [2] of the same molecule?
Answer: Inestimable

Question: And the Cmax [2]?
Answer: Inestimable

Question: And the Tmax [2]?
Answer: Inestimable

Question: For `CC(=O)N1CCN(c2ccc(OCC3COC(Cn4ccnc4)(c4ccc(Cl)cc4Cl)O3)cc2)CC1` (stereo not drawn) [Ketoconazole], which half-life (in vitro [3]) is on record?
Answer: > 2 h

Question: With `CC(C)NCC(O)COc1cccc2ccccc12` (stereo not drawn) [Propranolol] as the molecule, how does the A-B permeability (CACO-2 cell line) read?
Answer: 62.15 ×10⁻⁶ cm/s

Reference: patent publication US20250268919A1, “COMPOUNDS FOR THE TREATMENT OF CANCER” (Amneal Pharmaceuticals LLC, priority 2021, published 2025)
